Experimental data reported in patent US20040242476A1, “Male contraceptives” (The Population Council, Inc, priority 2001, published 2004).

Columns and labels:
[1] = system: inter-Sertoli TJ-permeability barrier; assay: Transepithelial electrical resistance (TER) across Sertoli cell epithelia; type: cell-based, rat
Protocol: Preparation of Sertoli cell cultures. Primary Sertoli cells were isolated from 20-day-old Sprague-Dawley rat testes as previously described (Cheng et al., 1986). For low cell density cultures, Sertoli cells were plated at 5×10^4 cells/cm^2 in 100-mm Petri dishes [approximately 4.5×10^6 cells/100-mm dish/9 ml Ham's F12 Nutrient Mixture/Dulbecco's Modified Eagle's Medium (F12/DMEM, 1:1, vol/vol, Life Technologies, Inc.); F12/DMEM were supplemented with 15 mM HEPES, 1.2 g/L sodium bicarbonate, 10 μg/ml bovine insulin, 5 μg/ml human transferrin, 2.5 ng/ml EGF, 20 mg/L gentamicin and 10 μg/ml bacitracin. Sertoli cells cultured under low cell density formed monolayer epithelia without the assembly of inter-Sertoli TJs when monitored by TER measurement (Grima et al., 1998). However, both adherens junctions (AJs) and gap junctions (GJs) were formed (Chung et al., 1999). For high cell density cultures, Sertoli cells were plated on Matrigel™ (Collaborative Biochemical Products, Belford, Mass.)-coated (diluted 1:7 with F12/DMEM, vol/vol) 24-well dishes (effective surface area, approximately 1.88 cm^2, with 2 ml F12/DMEM per well) at a density of 0.6-3×10^6 cells/cm^2 as previously described (Grima et al., 1998) to allow formation of TJs, AJs and GJs, mimicking Sertoli cells found in vivo when assessed by various criteria (Grima et al., 1992). Cell cultures were incubated in a humidified atmosphere of 95% air and 5% CO2 (vol/vol) at 35° C. and TER readings were recorded 24 hr later and designated as cultures at day 1.
Assessing the integrity of the inter-Sertoli TJ-permeability barrier by measuring the transepithelial electrical resistance (TER) across Sertoli cell epithelia To assess the effects of occludin peptide on the assembly of inter-Sertoli TJs, Sertoli cells isolated from 20-day-old rat testes were cultured at 1.2×10^6 cells/cm^2 to allow the assembly of inter-Sertoli TJs, and the TER, which is a quantitative measurement of TJ integrity, across the Sertoli cell epithelia was quantified as previously described (Wong et al., 2000; Grima et al. 1998). Cells were plated on Matrigel™ (1:7)-coated HA filters in the apical chamber (Millipore, Bedford, Mass.) (25, 28). Great care was taken so that air bubbles were not trapped between Sertoli cell aggregates, which is the major obstacle to obtain steady TER across the Sertoli cell epithelia since air bubbles create physical pores between adjacent Sertoli cells. TER across the Sertoli cell epithelia at specific time points was determined by a Millicell electrical resistance system as described (Grima et al., 1998; Cheng and Chung, 2001). The resistance in ohm was multiplied by the effective surface area of the bicameral unit (approximately 0.6 cm^2) to yield the area resistance (ohm.cm^2). The net value of electrical resistance was then computed by substracting the background, which was measured on the Matrigel-coated cell-free chambers, from values of Sertoli cell-plated chambers. To minimize temperature-induced fluctuations during TER measurement, cultures were stabilized at room temperature for 20-30 minutes prior to recording TER across the Sertoli cell epithelia. Synthetic occludin peptide at 0.2-4 μM was included in the basal (0.5 ml F12/DMEM containing 0.03% DMSO, vol/vol, DMSO was used to solubilize the peptide in medium) and apical (0.5 ml F12/DME containing 0.03% DMSO, vol/vol) chambers of the bicameral units 24 hours after freshly isolated Sertoli cells were plated onto Matrigel-coated units (day 1). […]

[2] = system: Sertoli cells; assay: Trypan blue dye-exclusion cell viability test; type: cell-based, rat; conditions: peptide-treated cultures (data not shown)
[3] = Stability of peptide to UV sterilization (HPLC retention, microsequencing); type: physicochemical; conditions: UV 5 minutes, suspension in 0.9% saline
Protocol: Intratesticular injection of occludin peptide and histological analysis of the testis. To assess the in vivo effects of the occludin peptide on spermatogenesis, peptide was administered to testes of adult rats by direct intratesticular injection as follows. Peptide was suspended in 0.9% sterile saline, sterilized by exposure to UV for 5 minutes. […] First, UV treated peptide retained the same retention time on reverse-phase HPLC using a Vydac C18 column (4.6×250 mm, i.d.) (Cheng et al., 1998; Cheng et al., 1989) when compared to peptide prior to the UV treatment. Second, the primary sequence of the UV-trated peptide remain unaltered when direct protein microsequencing was performed as described (Mruk and Cheng, 1990; Cheng et al., 1998; Cheng et al., 1989). Adult rats weighing between 250 and 300 g body weight were anesthetized with Metofane® before treatment. Rats received either 300 μl of 0.9% sterile saline (vehicle control), no treatment (control), or 1.5-10 mg of occludin peptide suspended in 300 μl of 0.9% sterile saline intratesticularly. The right testis of an animal received the peptide or vehicle and the left testis of the same animal was not treated and was used as a control. Peptide or vehicle was administered at 3 sites/testis with about 100 μl sample per site essentially as previously described (Grima et al., 1998; Eng et al., 1994). […]

[4] = system: spermatogenesis in adult rat testis; assay: Intratesticular injection: testicular weight and histological analysis of the testis; type: in vivo
Protocol: Intratesticular injection of occludin peptide and histological analysis of the testis. To assess the in vivo effects of the occludin peptide on spermatogenesis, peptide was administered to testes of adult rats by direct intratesticular injection as follows. Peptide was suspended in 0.9% sterile saline, sterilized by exposure to UV for 5 minutes. […] First, UV treated peptide retained the same retention time on reverse-phase HPLC using a Vydac C18 column (4.6×250 mm, i.d.) (Cheng et al., 1998; Cheng et al., 1989) when compared to peptide prior to the UV treatment. Second, the primary sequence of the UV-trated peptide remain unaltered when direct protein microsequencing was performed as described (Mruk and Cheng, 1990; Cheng et al., 1998; Cheng et al., 1989). Adult rats weighing between 250 and 300 g body weight were anesthetized with Metofane® before treatment. Rats received either 300 μl of 0.9% sterile saline (vehicle control), no treatment (control), or 1.5-10 mg of occludin peptide suspended in 300 μl of 0.9% sterile saline intratesticularly. The right testis of an animal received the peptide or vehicle and the left testis of the same animal was not treated and was used as a control. Peptide or vehicle was administered at 3 sites/testis with about 100 μl sample per site essentially as previously described (Grima et al., 1998; Eng et al., 1994). In another control group, rats were injected with a synthetic 22-amino acid peptide of NH2—[…]—COOH based on a known Sertoli cell protein, rat myotubularin (rMTM) (Li et al., 2000; Li et al., 2001), which had no sequence homology with occludin. Three rats were used in each treatment group and rats were sacrificed by CO2 asphyxiation at specific time points. Testes were removed immediately and fixed in 10% neutral buffered formalin. Testes were embedded in paraffin, and dehydrated in graded ethanol. For morphological analysis, 5 μm sections were cut and stained with hematoxylin and eosin. About 50 sections were examined at different sites for each testis using an Olympus BX40 microscope (Tokyo, Japan), interfaced to an Olympus PM-30 Exposure Control Unit.
Following HPLC purification, occludin or myotubularin peptide was suspended in 0.9% sterile saline and sterilized under UV for 5 minutes. Each rat in the experimental group received an intratesticular injection of 300 μl of saline containing either 0.15 mg or 1.5 mg of the corresponding purified peptide. The peptide suspension was distributed in each testis at 3 sites (approximately […] per site) as described in Materials and Methods and detailed elsewhere (Grima et al., 1992; Eng et al., 1994). […] FIGS. 6D-F are another control set of testes where rats received an intratesticular injection of the myotubularin peptide at 10 (FIG. 6D), 23 (FIG. 6E), and 40 days (FIG. 6F) post-treatment.

[5] = system: blood-testis barrier (BTB); assay: Blood-testis barrier integrity by micropuncture, [125I]-BSA in STF and RTF; type: in vivo, rat; conditions: for effect on BTB integrity: intratesticular injection 1.5 mg/testis
Protocol: Assessing the occludin-peptide induced disruption of the blood-testis barrier (BTB) by micropuncture techniques.
Briefly, 5 μg of BSA (Sigma, RIA grade, Mr 68 kDa) was radioiodinated by Iodogen (Fraker et al., 1978) using 1 mCi of [^125I]-sodium iodide (Amersham Pharmacia Biotech) as described (Cheng et al., 1983).
Detection of [^125]-BSA in seminiferous tubular fluid (STF) and rete testis fluid (RTF). 2, 4, 6, and 12-week after an intratesticular administration of 1.5 mg of either occludin or myotubularin peptide/testis as described above (administered at 3 sites to the right testis) where the left testis of the same animal was used as a control. Rats (n=4-6 rats per time point, approximately 250 gm b.w. at the time of peptide treatment) were anesthetized with ketamine HCl (Fort Dodge Laboratories, Inc., Fort Dodge Iowa) at 60 mg/kg b.w. Micropuncture was performed essentially as described (Turner et al., 1984; Stahler et al., 1991). Briefly, testes were exposed through an abdominal incision, and the efferent ducts were ligated with surgical silk thread. Testes were then returned to the scrotum, wound cleansed with 70% ethanol, surgically closed and animals were allowed to recover. Twenty-four hours after efferent duct ligation, rats were anesthetized by ketamine HCl, bilateral nephrectomy was performed to prevent renal excretion of [^125I]-BSA, and approximately 6×10^6 cpm of [^125I]-BSA was infused into the rat via jugular vein. Two hours after infusion, testes were removed, RTF and STF were collected as described (Turner et al, 1984; Stahler et al., 1991) for radioactivity determination in a γ-counter. The left testis from the same animal without receiving either the occludin or myotubularin peptide served as a control, and both STF and RTF were also collected for radioactivity determination to assess the integrity of the BTB.

[6] = 1.5 mg/testis, 2, 4, 6 and 12 weeks, vs rats without peptide

| effect of UV treatment on peptide structure [3] | appearance of the testis and the epididymis ([4]; after intratesticular injection) | Substance | decline in TER compared to untreated controls ([1]; 4 μM, days 4-5) | toxicity to Sertoli cells ([1]; concluded from reversibility after peptide removal) | change in TER across Sertoli cell epithelia ([1]; peptide 0.2-4 μM added 24 hours after isolation, 1.2×10^6 cells/cm^2 (FIG. 4A)) | time until TER reading indistinguishable from controls after peptide removal (TJ barrier reassembly) ([1]; peptide removed on day 5 by two washes (FIG. 4B)) [days] | cell viability versus control cultures [2] | reduction of seminiferous tubular diameter ([4]; 27 days, compared to control, vehicle or myotubularin peptide testes) | time for almost full recovery of testes ([4]; 68 days versus 27 days post-treatment) [days] | germ cell repopulation ([4]; after 27 days post treatment) | elongated spermatids in seminiferous epithelium ([4]; between 8 and 16 days after treatment) | germ cells in epithelium, virtually all tubules examined ([4]; by 27 days after intratesticular injection) | morphology of tubules ([4]; by 47 days post treatment) | morphology of the seminiferous epithelium ([4]; by 68 days post treatment) | testicular weight ([4]; within 2 weeks after intratesticular injection of 0.15 mg or 1.5 mg, vs no treatment, vehicle or myotubularin peptide (FIG. 5)) | effect on BTB integrity [5] | effects to perturb the inter-Sertoli TJ barrier ([1]; 4 μM (data not shown)) | radioactivity detected in RTF [5, 6] | radioactivity detected in STF [5, 6] |
| --- | --- | --- | --- | --- | --- | --- | --- | --- | --- | --- | --- | --- | --- | --- | --- | --- | --- | --- | --- |
| did not alter its structure | appeared normal | H-GSQIYTICSQFYTPGGTGLYVD-OH [occludin peptide] | approximately 50% | non-toxic | dose-dependent decline in TER | 3 to 4 | no apparent differences | 20-30% | ≤ 40 | began to repopulate in the epithelium | began to deplete from the epithelium | Massive depletion of germ cells | spermatocytes were clearly visible in all the tubules examined | indistinguishable from control rats | reduction in testicular weight | disruption of the BTB |  |  |  |
|  |  | NH2—TKVNERYELCDTYPALLAVPAN—COOH (H-TKVNERYELCDTYPALLAVPAN-OH) [myotubularin peptide] |  |  |  |  |  |  |  |  |  |  |  |  |  | failed to induce disruption of the BTB | no apparent effects | indistinguishable from control rats | indistinguishable from control rats |
